Measured values taken from US20250075209A1, “RNAS FOR COMPLEMENT INHIBITION” (Apellis Pharmaceuticals, Inc., priority 2021, published 2025).
Oligonucleotides are written 5' to 3', each unit as a sugar letter and its base; * is a phosphorothioate linkage, no mark a phosphodiester; rarer units and linkages stand in square brackets, end groups in braces. Plain capitals give the bases only. [ ]: non-standard residue; d: D form. 2Nal = N[C@@H](Cc1ccc2ccccc2c1)C(=O)O; Igl = N[C@H](C(=O)O)C1Cc2ccccc2C1; m = 2'-O-methyl; f = 2'-fluoro

Tests used:
factor B mRNA transcript = assay: Knockdown of factor B expression in HepG2 cells using siRNAs, dose response experiments (DRC); assay type: cell-based, human; conditions: for Max Factor B inhibition (%): dose response up to 100 nM
Method: HepG2 cells were obtained from ATCC (ATCC in partnership with LGC Standards, Wesel, Germany, cat. #ATCC-HB-8065) and cultured in MEM Eagle (#M2279, Sigma-Aldrich, Germany), supplemented to contain 10% fetal calf serum (#1248D, Biochrom GmbH, Berlin, Germany), 1×non-essential amino acids (#K0293; Biochrom, Berlin, Germany), 4 mM L-Glutamine (#K0283, Biochrom, Berlin, Germany) and 100 U/ml Penicillin/100 μg/ml Streptomycin (#A2213, Biochrom GmbH, Berlin, Germany) at 37° C. in an atmosphere with 5% CO2 in a humidified incubator.
24 siRNAs were designed and synthesized to target different regions of the factor B mRNA transcript. In this experiment, the sense strand of each siRNA contained 18 nucleotides identical to a target region sequence on the factor B transcript (SEQ ID NO: 75), and one additional adenine nucleotide at the 3′ end. Additionally, in this experiment, the antisense strand contained 18 nucleotides complementary to a target region sequence on the factor B transcript (SEQ ID NO: 75), and one additional uracil nucleotide at the 5′ end, and 2 additional uracil nucleotides at the 3′ end.
Transfection of siRNA was carried out with Lipofectamine RNAiMax (Invitrogen/Life Technologies, Karlsruhe, Germany) according to manufacturer's instructions for reverse transfection.
Each siRNA was tested using dose response experiments (DRC) in HepG2 cells. Dose-response experiments were done with siRNA in 10 concentrations transfected in quadruplicates, starting at 100 nM in 6-fold dilutions steps down to ˜10 fM. Mock transfected cells served as negative controls.
For each well, the target mRNA level was normalized to the respective GAPDH mRNA level. The activity of a given siRNA was expressed as percent mRNA concentration of the respective target (normalized to GAPDH mRNA) in treated cells, relative to the target mRNA concentration (normalized to GAPDH mRNA) averaged across mock transfected wells (DRCs).
Dose response experiments described above were repeated in a subset of siRNAs shown in Table 9, specifically siRNAs 2, 7, 8, and 3.

complement activation = conditions: relative to compstatin amidated at the C-terminus; based on published data (WO2004/026328, WO2007044668, Mallik 2005, Katragadda 2006); cited from earlier work
[1] = reverse transfection, 10 concentrations from 100 nM in 6-fold dilutions, factor B mRNA normalized to GAPDH, relative to mock, Table 8
[2] = additional (repeated) dose response experiments, Table 10

Substance	Max Factor B inhibition (%) (factor B mRNA transcript; Table 8)	IC20 (factor B mRNA transcript; [1]) [nM]	IC50 (factor B mRNA transcript; [1]) [nM]	IC80 (factor B mRNA transcript; [1]) [nM]	Activity over compstatin (complement activation) [xmore]	IC20 (factor B mRNA transcript; [2]) [nM]	IC50 (factor B mRNA transcript; [2]) [nM]	IC80 (factor B mRNA transcript; [2]) [nM]	Max KD [%] (factor B mRNA transcript; [2])
17 (sense mC*mU*fCmAmCmGfCfCfCmGmAfGmAmCmUmUfUmCmA; antisense mU*fG*mAmAmAmGmUmCmUmCmGmGmGfCmGmUmGmAmG*mU*mU; siRNA) [compound 17]	75.50	0.07	0.85	–	–	–	–	–	–
21 (sense mC*mC*fUmUmGmAfUfAfGmUmUfCmAmCmAmAfGmAmA; antisense mU*fU*mCmUmUmGmUmGmAmAmCmUmAfUmCmAmAmGmG*mU*mU; siRNA) [compound 21]	72.43	0.12	1.63	–	–	–	–	–	–
23 (sense mU*mU*fUmUmAmUfGfAfCmUmAfUmGmAmCmGfUmUmA; antisense mU*fA*mAmCmGmUmCmAmUmAmGmUmCfAmUmAmAmAmA*mU*mU; siRNA) [compound 23]	68.74	0.22	2.44	–	–	–	–	–	–
5 (sense mG*mG*fGmGmAmGfUfAfGmUmGfGmAmUmGmUfCmUmA; antisense mU*fA*mGmAmCmAmUmCmCmAmCmUmAfCmUmCmCmCmC*mU*mU; siRNA) [compound 5]	86.90	0.1	0.67	9.65	–	–	–	–	–
Ac-ICVVQDWGHHRCT-CONH2 [Ac-compstatin]	–	–	–	–	3	–	–	–	–
Ac-ICV(2-Nal)CQDWGAHRCT-ONH2 (Ac-ICV[2Nal]QDWGAHRCT-NH2; ends and bridges not checked) [Ac-V4(2-Nal)/H9A]	–	–	–	–	99	–	–	–	–
Ac-ICV(2-Igl)QDWGAHRCT-CONH2 (Ac-ICV[Igl]QDWGAHRCT-NH2; not fully specified (bridges); printed as Ac-ICV(2-Igl)QDWGAHRCT-CONH2; cysteine pairing not given here) [Ac-V42Igl/H9A]	–	–	–	–	39	–	–	–	–
12 (sense mG*mG*fAmUmUmAfUfCfUmGmGfAmUmGmUmCfUmAmA; antisense mU*fU*mAmGmAmCmAmUmCmCmAmGmAfUmAmAmUmCmC*mU*mU; siRNA) [compound 12]	80.54	0.13	0.89	183	–	–	–	–	–
1 (sense mC*mC*fUmAmCmUfAfCfAmAmUfGmUmGmAmGfUmGmA; antisense mU*fC*mAmCmUmCmAmCmAmUmUmGmUfAmGmUmAmGmG*mU*mU; siRNA) [compound 1]	91.04	0.03	0.54	19.8	–	–	–	–	–
19 (sense mC*mU*fAmCmCmAfCfUfUmGmCfCmAmGmCmAfAmCmA; antisense mU*fG*mUmUmGmCmUmGmGmCmAmAmGfUmGmGmUmAmG*mU*mU; siRNA) [compound 19]	74.03	0.16	1.12	–	–	–	–	–	–
Ac-ICV(2-Nal)QDWGAHRCT-COOH (Ac-ICV[2Nal]QDWGAHRCT-OH; not fully specified (bridges); printed as Ac-ICV(2-Nal)QDWGAHRCT-COOH; cysteine pairing not given here) [Ac V4(2-Nal)/H9A-OH]	–	–	–	–	38	–	–	–	–
Ac-ICVYQDWGAHRCT-CONH2 [Ac-V4Y/H9A]	–	–	–	–	14	–	–	–	–
20 (sense mU*mU*fUmAmUmGfAfCfUmAmUfGmAmCmGmUfUmGmA; antisense mU*fC*mAmAmCmGmUmCmAmUmAmGmUfCmAmUmAmAmA*mU*mU; siRNA) [compound 20]	74.02	1.1	3.52	–	–	–	–	–	–
4 (sense mC*mU*fGmCmUmAfUfGfAmCmGfGmUmUmAmCfAmCmA; antisense mU*fG*mUmGmUmAmAmCmCmGmUmCmAfUmAmGmCmAmG*mU*mU; siRNA) [compound 4]	88.29	0.05	0.48	10.9	–	–	–	–	–
7 (sense mU*mA*fCmGmUmGfUfGfUmCmCfUmUmCmUmGfGmCmA; antisense mU*fG*mCmCmAmGmAmAmGmGmAmCmAfCmAmCmGmUmA*mU*mU; siRNA) [compound 7]	82.44	–	0.02	670	–	0.026	0.103	0.868	83.5
22 (sense mC*mU*fCmAmAmGfAfGfGmUmGfGmCmCmGmAfAmGmA; antisense mU*fC*mUmUmCmGmGmCmCmAmCmCmUfCmUmUmGmAmG*mU*mU; siRNA) [compound 22]	72.01	0.32	2.09	–	–	–	–	–	–
24 (sense mU*mU*fCmCmGmAfCfUfUmCmUfCmCmAmAmGfAmGmA; antisense mU*fC*mUmCmUmUmGmGmAmGmAmAmGfUmCmGmGmAmA*mU*mU; siRNA) [compound 24]	61.56	0.51	2.76	–	–	–	–	–	–
14 (sense mG*mG*fAmGmCmCfAfAfAmAmAfGmUmGmUmCfUmAmA; antisense mU*fU*mAmGmAmCmAmCmUmUmUmUmUfGmGmCmUmCmC*mU*mU; siRNA) [compound 14]	79.20	0.22	1.3	–	–	–	–	–	–
13 (sense mA*mC*fGmUmUmGfCfCfCmUmGfAmUmCmAmAfGmCmA; antisense mU*fG*mCmUmUmGmAmUmCmAmGmGmGfCmAmAmCmGmU*mU*mU; siRNA) [compound 13]	80.41	0.06	0.69	1340	–	–	–	–	–
18 (sense mC*mA*fGmCmGmAfUfCfUmGmUfGmAmCmAmAfCmGmA; antisense mU*fC*mGmUmUmGmUmCmAmCmAmGmAfUmCmGmCmUmG*mU*mU; siRNA) [compound 18]	75.45	0.3	2.02	–	–	–	–	–	–
8 (sense mA*mA*fGmUmGmUfCfUfAmGmUfCmAmAmCmUfUmAmA; antisense mU*fU*mAmAmGmUmUmGmAmCmUmAmGfAmCmAmCmUmU*mU*mU; siRNA) [compound 8]	82.24	–	0.16	717	–	0.0889	0.271	–	76.2
3 (sense mU*mU*fCmUmGmGfCfUfUmCmUfAmCmCmCmGfUmAmA; antisense mU*fU*mAmCmGmGmGmUmAmGmAmAmGfCmCmAmGmAmA*mU*mU; siRNA) [compound 3]	89.76	0.02	0.29	12	–	0.0722	0.204	0.886	87
11 (sense mA*mC*fCmAmUmAfGfAfAmGmGfAmGmUmCmGfAmUmA; antisense mU*fA*mUmCmGmAmCmUmCmCmUmUmCfUmAmUmGmGmU*mU*mU; siRNA) [compound 11]	81.08	0.01	0.26	2350	–	–	–	–	–
10 (sense mC*mU*fCmGmGmUfUfCfCmUmUfUmGmUmAmCfUmGmA; antisense mU*fC*mAmGmUmAmCmAmAmAmGmGmAfAmCmCmGmAmG*mU*mU; siRNA) [compound 10]	81.72	0.43	1.7	31.6	–	–	–	–	–
16 (sense mA*mA*fUmGmCmAfGfAfCmUmGfGmGmUmCmAfCmGmA; antisense mU*fC*mGmUmGmAmCmCmCmAmGmUmCfUmGmCmAmUmU*mU*mU; siRNA) [compound 16]	77.05	0.01	0.3	–	–	–	–	–	–
15 (sense mC*mC*fGmAmUmUfAfCfCmAmCfAmAmGmCmAfAmCmA; antisense mU*fG*mUmUmGmCmUmUmGmUmGmGmUfAmAmUmCmGmG*mU*mU; siRNA) [compound 15]	78.63	1.7	6.31	–	–	–	–	–	–
2 (sense mC*mU*fUmCmUmGfGfCfUmUmCfUmAmCmCmCfGmUmA; antisense mU*fA*mCmGmGmGmUmAmGmAmAmGmCfCmAmGmAmAmG*mU*mU; siRNA) [compound 2]	90.18	–	–	7.07	–	0.021	0.0887	0.865	83.5
9 (sense mC*mU*fAmUmGmAfCfGfUmUmGfCmCmCmUmGfAmUmA; antisense mU*fA*mUmCmAmGmGmGmCmAmAmCmGfUmCmAmUmAmG*mU*mU; siRNA) [compound 9]	82.07	0.01	0.27	142	–	–	–	–	–
6 (sense mU*mG*fUmGmGmUfGfUfCmUmGfAmGmUmAmCfUmUmA; antisense mU*fA*mAmGmUmAmCmUmCmAmGmAmCfAmCmCmAmCmA*mU*mU; siRNA) [compound 6]	85.34	0.03	0.37	16.1	–	–	–	–	–
